Source: ChEMBL document CHEMBL4118193, “1,2,3,4,6-Penta-O-galloyl-β-d-glucose suppresses colon cancer through induction of tumor suppressor” (Bioorg Med Chem Lett, 2018)
The source made the active and inactive calls. The rule behind the calls is not given here.

Assays:
[1] = system: HCT-116; assay: Induction of apoptosis in human HCT116 cells assessed as cyclin E protein level at 2.5 uM after 48 hrs by Western blot method relative to beta-actin; type: functional
[2] = system: HCT-116; assay: Anticlonogenic activity against human HCT116 cells assessed as inhibition of colony formation after 4 to 5 days by crystal violet staining-based assay; type: functional, cell-based
[3] = system: HT-29; assay: Cell cycle arrest in human HT-29 cells assessed as accumulation at S phase at 5 uM after 48 hrs (reference value: 9.7%); type: functional
[4] = system: HT-29; assay: Anticlonogenic activity against human HT-29 cells assessed as inhibition of colony formation after 4 to 5 days by crystal violet staining-based assay; type: functional, cell-based
[5] = system: HCT-116; assay: Cytotoxicity against human HCT116 cells at 10 uM after 48 hrs by CytoTox-96 non-radioactive assay; type: functional, cell-based
[6] = system: HT-29; assay: Cell cycle arrest in human HT-29 cells assessed as accumulation at G2/M phase at 5 uM after 48 hrs (reference value: 14.7%); type: functional
[7] = system: HCT-116; assay: Induction of apoptosis in human HCT116 cells assessed as necrotic cells at 10 uM after 48 hrs by Annexin-V and dead cell assay (reference value: 0.10%); type: functional
[8] = system: CCD-18Co; assay: Cytotoxicity against human CCD-18Co cells at 1 to 10 uM after 48 hrs by CytoTox-96 non-radioactive assay; type: cell-based
[9] = system: HCT-116; assay: Induction of apoptosis in human HCT116 cells assessed as late apoptotic cells at 10 uM after 48 hrs by Annexin-V and dead cell assay (reference value: 1.45%); type: functional
[10] = system: HCT-116; assay: Induction of apoptosis in human HCT116 cells after 48 hrs by Annexin-V and dead cell assay; type: functional, cell-based
[11] = system: HCT-116; assay: Induction of apoptosis in human HCT116 cells assessed as live cells at 5 uM after 48 hrs by Annexin-V and dead cell assay (reference value: 96.75%); type: functional
[12] = system: HCT-116; assay: Induction of apoptosis in human HCT116 cells assessed as Bcl-2 protein level at 2.5 uM after 48 hrs by Western blot method relative to beta-actin; type: functional
[13] = system: HT-29; assay: Induction of apoptosis in human HT-29 cells assessed as in p53 protein level at 10 uM after 48 hrs by Western blot method relative to beta-actin; type: functional
[14] = system: HT-29; assay: Induction of apoptosis in human HT-29 cells assessed as p21 protein level at 1 uM after 48 hrs by Western blot method relative to beta-actin; type: functional
[15] = system: HCT-116; assay: Induction of apoptosis in human HCT116 cells assessed as early apoptotic cells at 2.5 uM after 48 hrs by Annexin-V and dead cell assay (reference value: 1.70%); type: functional
[16] = system: HCT-116; assay: Induction of apoptosis in human HCT116 cells assessed as cleaved caspase-3 protein level at 5 uM after 48 hrs by Western blot method relative to caspase-3; type: functional
[17] = system: HT-29; assay: Induction of apoptosis in human HT-29 cells assessed as cyclin E protein level at 5 uM after 48 hrs by Western blot method relative to beta-actin; type: functional
[18] = system: HT-29; assay: Cytotoxicity against human HT-29 cells at 10 uM after 48 hrs by CytoTox-96 non-radioactive assay; type: functional, cell-based
[19] = system: HT-29; assay: Induction of apoptosis in human HT-29 cells assessed as p53 protein level at 1 uM after 48 hrs by Western blot method relative to beta-actin; type: functional
[20] = system: HCT-116; assay: Induction of apoptosis in human HCT116 cells assessed as cleaved caspase-3 protein level at 1 uM after 48 hrs by Western blot method relative to caspase-3; type: functional
[21] = system: HCT-116; assay: Induction of apoptosis in human HCT116 cells assessed as caspase-3 protein level at 1 uM after 48 hrs by Western blot method relative to beta-actin; type: functional
[22] = system: HT-29; assay: Induction of apoptosis in human HT-29 cells assessed as cleaved caspase-3 protein level at 10 uM after 48 hrs by Western blot method relative to caspase-3; type: functional
[23] = system: HT-29; assay: Induction of apoptosis in human HT-29 cells assessed as cyclin E protein level at 2.5 uM after 48 hrs by Western blot method relative to beta-actin; type: functional
[24] = system: HCT-116; assay: Induction of apoptosis in human HCT116 cells assessed as in p21 protein level at 5 uM after 48 hrs by Western blot method relative to beta-actin; type: functional
[25] = system: HT-29; assay: Induction of apoptosis in human HT-29 cells assessed as Bcl-2 protein level at 10 uM after 48 hrs by Western blot method relative to beta-actin; type: functional
[26] = system: HCT-116; assay: Induction of apoptosis in human HCT116 cells assessed as in p53 protein level at 5 uM after 48 hrs by Western blot method relative to beta-actin; type: functional
[27] = system: HCT-116; assay: Induction of apoptosis in human HCT116 cells assessed as early apoptotic cells at 10 uM after 48 hrs by Annexin-V and dead cell assay (reference value: 1.70%); type: functional
[28] = system: HCT-116; assay: Induction of apoptosis in human HCT116 cells assessed as late apoptotic cells at 2.5 uM after 48 hrs by Annexin-V and dead cell assay (reference value: 1.45%); type: functional
[29] = system: HT-29; assay: Induction of apoptosis in human HT-29 cells assessed as Bcl-2 protein level at 1 uM after 48 hrs by Western blot method relative to beta-actin; type: functional
[30] = system: HT-29; assay: Cell cycle arrest in human HT-29 cells assessed as accumulation at S phase at 1 uM after 48 hrs (reference value: 9.7%); type: functional
[31] = system: HT-29; assay: Induction of apoptosis in human HT-29 cells assessed as CDK2 protein level at 5 uM after 48 hrs by Western blot method relative to beta-actin; type: functional
[32] = system: HT-29; assay: Induction of apoptosis in human HT-29 cells assessed as DNA fragmentation at 1 to 10 uM after 48 hrs by ELISA; type: functional, cell-based
[33] = system: HCT-116; assay: Cell cycle arrest in human HCT116 cells assessed as accumulation at S phase at 2.5 uM after 48 hrs (reference value: 10.9%); type: functional
[34] = system: HCT-116; assay: Induction of apoptosis in human HCT116 cells assessed as in p53 protein level at 10 uM after 48 hrs by Western blot method relative to beta-actin; type: functional
[35] = system: HT-29; assay: Induction of apoptosis in human HT-29 cells after 48 hrs by Annexin-V and dead cell assay; type: functional, cell-based
[36] = system: HCT-116; assay: Induction of apoptosis in human HCT116 cells assessed as CDK2 protein level at 10 uM after 48 hrs by Western blot method relative to beta-actin; type: functional
[37] = system: HCT-116; assay: Induction of apoptosis in human HCT116 cells assessed as CDK2 protein level at 5 uM after 48 hrs by Western blot method relative to beta-actin; type: functional
[38] = system: HCT-116; assay: Induction of apoptosis in human HCT116 cells assessed as p21 protein level at 10 uM after 48 hrs by Western blot method relative to beta-actin; type: functional
[39] = system: HCT-116; assay: Cell cycle arrest in human HCT116 cells assessed as accumulation at G2/M phase at 1 uM after 48 hrs (reference value: 21.5%); type: functional
[40] = system: HCT-116; assay: Induction of apoptosis in human HCT116 cells assessed as p53 protein level at 1 uM after 48 hrs by Western blot method relative to beta-actin; type: functional
[41] = system: HCT-116; assay: Induction of apoptosis in human HCT116 cells assessed as p21 protein level at 1 uM after 48 hrs by Western blot method relative to beta-actin; type: functional
[42] = system: HT-29; assay: Cell cycle arrest in human HT-29 cells assessed as accumulation at G2/M phase at 1 uM after 48 hrs (reference value: 14.7%); type: functional

O=C(OC[C@H]1O[C@@H](OC(=O)c2cc(O)c(O)c(O)c2)[C@H](OC(=O)c2cc(O)c(O)c(O)c2)[C@@H](OC(=O)c2cc(O)c(O)c(O)c2)[C@@H]1OC(=O)c1cc(O)c(O)c(O)c1)c1cc(O)c(O)c(O)c1 [PENTAGALLOYL GLUCOSE]
fold change (FC) [1]: 1.6
Activity [2]: Dose-dependent effect
Activity [3]: 14.3%
Activity [4]: Dose-dependent effect
Activity [5]: Active
Activity [6]: 16.3%
Activity [7]: 0.25%
Activity [8]: Non-Toxic
Activity [9]: 6.1%
Activity [10]: Dose-dependent effect
Activity [11]: 93.35%
fold change (FC) [12]: 1.8
fold change (FC) [13]: 6
fold change (FC) [14]: 2.4
Activity [15]: 1.35%
fold change (FC) [16]: 2
fold change (FC) [17]: 0.8
Activity [18]: Active
fold change (FC) [19]: 0.7
fold change (FC) [20]: 1
fold change (FC) [21]: 29.6
fold change (FC) [22]: 5.7
fold change (FC) [23]: 0.9
fold change (FC) [24]: 0.7
fold change (FC) [25]: 0.3
fold change (FC) [26]: 4.9
Activity [27]: 3.2%
Activity [28]: 1%
fold change (FC) [29]: 0.7
Activity [30]: 12.7%
fold change (FC) [31]: 0.4
Activity [32]: Active
Activity [33]: 9%
fold change (FC) [34]: 8.1
Activity [35]: Dose-dependent effect
fold change (FC) [36]: 0.3
fold change (FC) [37]: 0.4
fold change (FC) [38]: 1.6
Activity [39]: 18.1%
fold change (FC) [40]: 1.8
fold change (FC) [41]: 1.3
Activity [42]: 14.8%
